According to ChEMBL document CHEMBL4411321, “Discovery of Potent, Selective, and Orally Bioavailable Estrogen-Related Receptor-γ Inverse Agonists To Restore the Sodium Iodide Symporter Function in Anaplastic Thyroid Cancer” (J Med Chem, 2019):

Key:
[1] = biological target: T1, Steroid hormone receptor ERR2 (Homo sapiens, UniProt O95718); test: Binding affinity to ERRbeta (unknown origin) using fluorescein-conjugated coactivator PGC-1alpha incubated for 1 hr by TR-FRET assay
T1 sequence (O95718 whole entry): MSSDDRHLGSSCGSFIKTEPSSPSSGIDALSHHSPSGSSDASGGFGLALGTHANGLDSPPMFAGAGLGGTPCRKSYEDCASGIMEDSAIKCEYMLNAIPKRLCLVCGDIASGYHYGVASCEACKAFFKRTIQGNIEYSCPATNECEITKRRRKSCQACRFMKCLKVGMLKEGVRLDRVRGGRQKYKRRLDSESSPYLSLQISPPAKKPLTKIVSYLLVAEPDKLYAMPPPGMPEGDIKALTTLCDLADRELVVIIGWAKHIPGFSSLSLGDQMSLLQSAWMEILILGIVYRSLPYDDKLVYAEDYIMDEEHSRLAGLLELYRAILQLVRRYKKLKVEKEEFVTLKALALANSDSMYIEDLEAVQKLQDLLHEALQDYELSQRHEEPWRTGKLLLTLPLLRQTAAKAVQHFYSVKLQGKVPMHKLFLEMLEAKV

CYP1A2 = biological target: T2, CYP1A2 (Homo sapiens, UniProt P05177); test: Inhibition of CYP1A2 in human liver microsomes assessed as reduction in phenacetin O-deethylase activity at 10 uM preincubated for 5 mins followed by NADPH addition and measured after 15 mins by LC-MS/MS analysis relative to control; type: ADME; details: probe phenacetin (O-deethylation)
T2 sequence (P05177 whole entry): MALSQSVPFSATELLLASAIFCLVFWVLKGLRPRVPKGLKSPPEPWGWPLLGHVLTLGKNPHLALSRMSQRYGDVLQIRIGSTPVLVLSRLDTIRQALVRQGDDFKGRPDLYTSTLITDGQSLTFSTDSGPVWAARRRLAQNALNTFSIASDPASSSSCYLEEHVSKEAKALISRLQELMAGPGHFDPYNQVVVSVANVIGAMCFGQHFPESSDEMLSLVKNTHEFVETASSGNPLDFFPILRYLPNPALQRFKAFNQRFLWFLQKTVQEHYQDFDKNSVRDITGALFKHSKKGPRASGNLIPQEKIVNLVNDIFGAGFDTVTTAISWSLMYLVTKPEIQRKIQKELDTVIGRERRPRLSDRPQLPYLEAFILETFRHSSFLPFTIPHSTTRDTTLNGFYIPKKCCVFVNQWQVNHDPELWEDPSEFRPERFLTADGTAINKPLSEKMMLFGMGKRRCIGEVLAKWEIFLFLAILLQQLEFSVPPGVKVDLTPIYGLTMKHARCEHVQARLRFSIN

CYP2C9 = CYP2C9 (Homo sapiens, UniProt P11712); test: Inhibition of CYP2C9 in human liver microsomes assessed as reduction in tolbutamide 4-hydroxylase activity at 10 uM preincubated for 5 mins followed by NADPH addition and measured after 15 mins by LC-MS/MS analysis relative to control; type: ADME; details: probe tolbutamide (4-hydroxylation)
Sequence of CYP2C9 (P11712 whole entry): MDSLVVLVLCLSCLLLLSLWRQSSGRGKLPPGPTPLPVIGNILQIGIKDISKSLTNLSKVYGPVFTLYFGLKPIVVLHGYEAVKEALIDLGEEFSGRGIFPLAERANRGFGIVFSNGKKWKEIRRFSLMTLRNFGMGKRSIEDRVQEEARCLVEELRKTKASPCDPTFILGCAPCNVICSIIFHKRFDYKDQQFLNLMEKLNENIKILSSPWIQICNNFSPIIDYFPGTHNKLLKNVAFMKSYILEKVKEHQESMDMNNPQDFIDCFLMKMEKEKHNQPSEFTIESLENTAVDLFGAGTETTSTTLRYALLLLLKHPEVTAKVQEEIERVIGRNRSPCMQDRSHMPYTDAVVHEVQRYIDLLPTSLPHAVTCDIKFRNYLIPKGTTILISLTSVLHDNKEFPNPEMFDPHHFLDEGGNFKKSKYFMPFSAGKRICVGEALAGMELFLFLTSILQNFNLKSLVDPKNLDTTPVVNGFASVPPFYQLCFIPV

CYP2C19 = CYP2C19 (Homo sapiens, UniProt P33261); test: Inhibition of CYP2C19 in human liver microsomes assessed as reduction in S-mephenytoin 4-hydroxylase activity at 10 uM preincubated for 5 mins followed by NADPH addition and measured after 15 mins by LC-MS/MS analysis relative to control; type: ADME; details: probe S-mephenytoin (4-hydroxylation)
Sequence of CYP2C19 (P33261 whole entry): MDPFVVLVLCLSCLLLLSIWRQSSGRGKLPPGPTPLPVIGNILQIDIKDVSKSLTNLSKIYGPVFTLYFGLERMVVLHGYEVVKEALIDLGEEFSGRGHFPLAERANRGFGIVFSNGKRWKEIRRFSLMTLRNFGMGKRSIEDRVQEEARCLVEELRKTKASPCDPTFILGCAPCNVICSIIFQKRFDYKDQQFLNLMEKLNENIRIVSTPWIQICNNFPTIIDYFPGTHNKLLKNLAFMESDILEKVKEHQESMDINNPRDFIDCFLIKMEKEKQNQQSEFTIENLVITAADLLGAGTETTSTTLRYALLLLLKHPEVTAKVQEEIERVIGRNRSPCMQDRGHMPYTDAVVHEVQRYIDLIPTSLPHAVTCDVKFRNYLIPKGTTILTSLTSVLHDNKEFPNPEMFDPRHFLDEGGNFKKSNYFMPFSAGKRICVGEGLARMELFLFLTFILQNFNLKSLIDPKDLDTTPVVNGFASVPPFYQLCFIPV

CYP2D6 = CYP2D6 (Homo sapiens, UniProt P10635); test: Inhibition of CYP2D6 in human liver microsomes assessed as reduction in dextromethorphan O-demethylase activity at 10 uM preincubated for 5 mins followed by NADPH addition and measured after 15 mins by LC-MS/MS analysis relative to control; type: ADME; details: probe dextromethorphan (O-demethylation)
Sequence of CYP2D6 (P10635 whole entry): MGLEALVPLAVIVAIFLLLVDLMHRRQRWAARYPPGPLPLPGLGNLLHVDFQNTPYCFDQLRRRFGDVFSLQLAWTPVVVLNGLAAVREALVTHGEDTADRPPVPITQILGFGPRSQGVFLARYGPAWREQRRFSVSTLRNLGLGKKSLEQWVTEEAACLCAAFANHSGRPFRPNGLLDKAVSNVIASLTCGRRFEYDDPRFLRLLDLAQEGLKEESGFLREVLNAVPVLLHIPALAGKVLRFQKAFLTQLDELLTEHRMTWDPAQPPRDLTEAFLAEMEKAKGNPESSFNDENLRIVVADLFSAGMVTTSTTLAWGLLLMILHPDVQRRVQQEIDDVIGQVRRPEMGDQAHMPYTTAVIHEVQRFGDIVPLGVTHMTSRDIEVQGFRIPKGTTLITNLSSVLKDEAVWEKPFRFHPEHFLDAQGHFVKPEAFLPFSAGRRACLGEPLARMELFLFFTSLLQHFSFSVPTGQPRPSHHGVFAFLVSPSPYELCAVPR

CYP3A4 = CYP3A4 (Homo sapiens, UniProt P08684); test: Inhibition of CYP3A4 in human liver microsomes assessed as reduction in midazolam 1-hydroxylase activity at 10 uM preincubated for 5 mins followed by NADPH addition and measured after 15 mins by LC-MS/MS analysis relative to control; type: ADME; details: probe midazolam (1-hydroxylation)
Sequence of CYP3A4 (P08684 whole entry): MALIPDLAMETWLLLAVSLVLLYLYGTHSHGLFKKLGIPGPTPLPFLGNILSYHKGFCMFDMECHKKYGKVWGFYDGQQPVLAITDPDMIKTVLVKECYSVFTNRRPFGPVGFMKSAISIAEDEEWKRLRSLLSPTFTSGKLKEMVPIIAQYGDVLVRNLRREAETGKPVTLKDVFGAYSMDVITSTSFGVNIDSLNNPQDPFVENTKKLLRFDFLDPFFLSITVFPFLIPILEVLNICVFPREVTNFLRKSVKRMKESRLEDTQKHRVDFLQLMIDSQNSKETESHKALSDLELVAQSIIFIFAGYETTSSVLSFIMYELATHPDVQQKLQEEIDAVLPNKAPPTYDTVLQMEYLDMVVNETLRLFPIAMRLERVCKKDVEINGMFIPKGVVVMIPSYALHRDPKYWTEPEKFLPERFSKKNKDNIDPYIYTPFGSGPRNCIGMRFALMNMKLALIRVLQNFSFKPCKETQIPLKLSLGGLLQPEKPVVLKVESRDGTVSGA

[2] = Metabolic stability in human liver microsomes assessed as compound remaining at 1 uM after 30 mins in presence of NADPH regeneration system by LC-MS/MS analysis; type: ADME, Microsome; details: read-out: Stability
[3] = Metabolic stability in dog liver microsomes assessed as compound remaining at 1 uM after 30 mins in presence of NADPH regeneration system by LC-MS/MS analysis; type: ADME, Canis lupus familiaris, Microsome; details: read-out: Stability
[4] = Metabolic stability in rat liver microsomes assessed as compound remaining at 1 uM after 30 mins in presence of NADPH regeneration system by LC-MS/MS analysis; type: ADME, Microsome; details: read-out: Stability
[5] = Metabolic stability in mouse liver microsomes assessed as compound remaining at 1 uM after 30 mins in presence of NADPH regeneration system by LC-MS/MS analysis; type: ADME, Microsome; details: read-out: Stability
[6] = biological target: T3, Steroid hormone receptor ERR1 (Homo sapiens, UniProt P11474)
T3 sequence (P11474 whole entry): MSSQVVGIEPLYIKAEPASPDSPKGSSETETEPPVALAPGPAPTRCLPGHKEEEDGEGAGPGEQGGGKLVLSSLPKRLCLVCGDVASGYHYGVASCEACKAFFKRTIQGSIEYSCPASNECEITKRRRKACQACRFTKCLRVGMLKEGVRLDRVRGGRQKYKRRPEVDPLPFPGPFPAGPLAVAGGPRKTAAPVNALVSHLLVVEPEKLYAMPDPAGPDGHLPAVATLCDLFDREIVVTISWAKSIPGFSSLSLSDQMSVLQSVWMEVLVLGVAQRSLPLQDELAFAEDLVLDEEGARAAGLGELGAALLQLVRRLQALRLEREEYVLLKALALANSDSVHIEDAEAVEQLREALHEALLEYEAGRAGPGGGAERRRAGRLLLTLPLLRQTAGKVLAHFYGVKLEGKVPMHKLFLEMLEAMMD

Estrogen receptor = biological target: T4, Estrogen receptor (Homo sapiens, UniProt P03372)
T4 sequence (P03372 whole entry): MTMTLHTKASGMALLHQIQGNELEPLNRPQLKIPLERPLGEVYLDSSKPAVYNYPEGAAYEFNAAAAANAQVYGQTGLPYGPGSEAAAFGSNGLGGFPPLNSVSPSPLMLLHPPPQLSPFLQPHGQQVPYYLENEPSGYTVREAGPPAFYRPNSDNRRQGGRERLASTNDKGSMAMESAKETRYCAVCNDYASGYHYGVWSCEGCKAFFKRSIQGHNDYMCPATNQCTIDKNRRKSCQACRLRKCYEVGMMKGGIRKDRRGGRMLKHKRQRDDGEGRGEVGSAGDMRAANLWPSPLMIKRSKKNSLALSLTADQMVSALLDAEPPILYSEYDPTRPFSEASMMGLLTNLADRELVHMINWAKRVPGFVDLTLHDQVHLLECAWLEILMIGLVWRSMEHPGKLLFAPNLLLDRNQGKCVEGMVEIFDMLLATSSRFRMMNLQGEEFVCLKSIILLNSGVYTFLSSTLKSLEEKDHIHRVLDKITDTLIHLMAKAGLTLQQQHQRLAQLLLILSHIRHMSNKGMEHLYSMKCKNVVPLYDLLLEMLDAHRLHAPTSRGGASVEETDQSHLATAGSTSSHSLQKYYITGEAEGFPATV

[7] = biological target: T5, Estrogen-related receptor gamma (Homo sapiens, UniProt P62508)
T5 sequence (P62508 whole entry): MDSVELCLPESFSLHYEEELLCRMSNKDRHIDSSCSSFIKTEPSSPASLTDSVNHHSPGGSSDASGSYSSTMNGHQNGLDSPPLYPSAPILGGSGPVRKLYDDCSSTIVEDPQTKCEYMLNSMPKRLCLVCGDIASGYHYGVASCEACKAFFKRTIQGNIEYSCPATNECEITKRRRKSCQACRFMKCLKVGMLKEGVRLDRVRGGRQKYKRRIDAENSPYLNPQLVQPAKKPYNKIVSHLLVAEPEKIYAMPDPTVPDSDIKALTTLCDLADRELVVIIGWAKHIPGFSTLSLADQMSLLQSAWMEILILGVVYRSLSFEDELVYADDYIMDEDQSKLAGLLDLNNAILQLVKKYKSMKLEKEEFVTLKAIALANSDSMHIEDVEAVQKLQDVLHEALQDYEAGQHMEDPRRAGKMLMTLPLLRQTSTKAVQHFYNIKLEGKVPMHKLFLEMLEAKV

Row | SMILES | IC50 [6] [µM] | IC50 (Estrogen receptor) [µM] | IC50 [7] [µM] | further results
1 | CC(C)N1CCN(c2ccc(/C(=C(/CCCO)c3ccccc3)c3cccc(Br)c3)cc2)CC1 | > 10 | > 10 | – | IC50 [1]: 1.44 µM; inhibition at 0.25 h, 10 µM (CYP1A2): 2.5%; inhibition at 0.25 h, 10 µM (CYP2C9): 27%; inhibition at 0.25 h, 10 µM (CYP2C19): 56.1%; inhibition at 0.25 h, 10 µM (CYP2D6): 70.4%; inhibition at 0.25 h, 10 µM (CYP3A4): 60.1%; remaining at 0.5 h, 1 µM [2]: 53.6%; remaining at 0.5 h, 1 µM [3]: 68.4%; remaining at 0.5 h, 1 µM [4]: 53.7%; remaining at 0.5 h, 1 µM [5]: 31%
2 | CN1CCN(c2ccc(/C(=C(/CCCO)c3ccccc3)c3ccc(O)cc3)cc2)CC1 | > 10 | 1.7 | – | IC50 [1]: 1.98 µM
3 | CN1CCN(c2ccc(/C(=C(/CCCOC(=O)C(C)(C)C)c3ccccc3)c3ccc(O)cc3)cc2)CC1 | – | – | > 10 | –
4 | CC(C)N1CCN(c2cccc(/C(=C(/CCCO)c3ccccc3)c3ccc(O)cc3)c2)CC1 | – | – | > 10 | –
5 | CC(C)N1CCN(c2ccc(/C(=C(/CCCO)c3ccccc3)c3ccc(NS(=O)(=O)C4CC4)cc3)cc2)CC1 | – | – | 3.63 | –
6 | OCCC/C(=C(\c1ccc(Br)cc1)c1ccc(N2CCNCC2)cc1)c1ccccc1 | – | > 10 | – | inhibition at 0.25 h, 10 µM (CYP1A2): 15%; inhibition at 0.25 h, 10 µM (CYP2C9): 24%; inhibition at 0.25 h, 10 µM (CYP2C19): 38.1%; inhibition at 0.25 h, 10 µM (CYP2D6): 29.3%; inhibition at 0.25 h, 10 µM (CYP3A4): 45%; remaining at 0.5 h, 1 µM [2]: 65.1%; remaining at 0.5 h, 1 µM [4]: 84.7%
7 | OCCC/C(=C(\c1ccc(O)cc1)c1ccc(N2CCN(C3CCCC3)CC2)cc1)c1ccccc1 | – | – | 0.115 | –
8 | OCCC/C(=C(\c1ccc(O)cc1)c1ccc(N2CCNCC2)cc1)c1ccccc1 | > 10 | 2.5 | – | IC50 [1]: 4.54 µM
9 | CCN1CCN(c2ccc(/C(=C(/CCCO)c3ccccc3)c3ccc(O)cc3)cc2)CC1 | > 10 | 1.14 | 0.05 | –
10 | CC(=O)Nc1ccc(/C(=C(\CCCO)c2ccccc2)c2ccc(N3CCN(C(C)C)CC3)cc2)cc1 | – | – | 4.33 | –
11 | CC(C)N1CCN(c2ccc(/C(=C(/CCCO)c3ccccc3)c3ccc(OS(C)(=O)=O)cc3)cc2)CC1 | – | – | 2.63 | –
12 | CN1CCN(c2ccc(/C(=C(/CCCO)c3ccccc3)c3ccc(Br)cc3)cc2)CC1 | > 10 | > 10 | – | –
13 | CN1CCN(c2ccc(/C(=C(/CCCO)c3ccccc3)c3ccc(OC(=O)C(C)(C)C)cc3)cc2)CC1 | – | – | 2.7 | –
